Key:
HIV-strain pNL4-3 = assay: HIV-1 replication in acutely infected PBMC (CA-p24 ELISA); format: cell-based
Procedure: Experiments were conducted to assess the effect of the compounds of the instant invention on HIV-1 replication in acutely infected T cells. Peripheral blood mononuclear cells (PBMC) were obtained from non-HIV-1, non-HIV-2, non-Hepatitis B/C infected donors, stimulated with phytohemagglutinin-M and grown in culture media supplemented with 10 U/mL interleukin-2. The activated PBMC were infected with […] (Low Titre) and 100 ng (High Titre) of CA-p24 equivalents of the HIV-strain pNL4-3. Cells were infected for two hr after which, the virus was removed and the cells were washed with culture media. Equivalent numbers of cells were seeded into 24 well plates and compounds were added to the cultured cells that included: TPA at 8 riM and 80 nM, Ingenol at 280 nM, PEP003 at 500 nM, 50 nM and 5 nM, or PEP004 at dilutions of 1×10^4 and 1×10^5 from the stock (final concentrations). In addition, uninfected activated PBMC were grown in the presence of TPA (80 nM), Ingenol (280 nM), PEP003 (500 nM) and PEP004 (1×10^4 dilution). Other cultures were neither infected nor treated with any compound, or infected but not treated with any compound. Supernatant was removed from each culture at day 0, 3, 7, and 10. The amount of HIV-1 CA-p24 was determined using a commercially available ELISA assay. Three independent experiments were performed.

PKCζ = molecular target: T1, PKCζ (Homo sapiens, UniProt Q05513); assay: EGFP-PKC isoform translocation in HeLa cells; format: cell-based; conditions: one hour, TPA 100 ng/mL, bryostatin-1 5 pg/mL, PEP003 2.25 μg/mL (5 μM), PEP005 670 μg/mL (1.5 μM)
T1 construct: host or cells: HeLa cells
T1 sequence (Q05513 1-592): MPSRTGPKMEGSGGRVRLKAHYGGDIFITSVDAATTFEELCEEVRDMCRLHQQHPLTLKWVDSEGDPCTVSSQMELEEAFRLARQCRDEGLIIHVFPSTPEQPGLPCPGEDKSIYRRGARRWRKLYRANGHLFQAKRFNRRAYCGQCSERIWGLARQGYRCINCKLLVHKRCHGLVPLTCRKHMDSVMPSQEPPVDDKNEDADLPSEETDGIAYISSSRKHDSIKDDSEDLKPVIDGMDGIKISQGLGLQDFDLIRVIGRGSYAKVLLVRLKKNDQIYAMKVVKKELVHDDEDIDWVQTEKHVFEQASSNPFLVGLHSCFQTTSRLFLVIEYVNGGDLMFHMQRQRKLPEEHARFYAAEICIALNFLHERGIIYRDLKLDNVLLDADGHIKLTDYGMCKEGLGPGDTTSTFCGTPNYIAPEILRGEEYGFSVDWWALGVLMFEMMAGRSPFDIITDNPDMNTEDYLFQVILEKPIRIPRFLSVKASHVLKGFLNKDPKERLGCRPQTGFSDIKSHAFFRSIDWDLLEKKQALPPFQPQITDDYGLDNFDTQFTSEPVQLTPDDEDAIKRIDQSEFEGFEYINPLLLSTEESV
Procedure: (§1) Five EGFP-PKC isoforms (Clontech) were available for this experiment, enabling the screening of the three predominant PKC families (i.e. classical, novel and atypical PKCs). The members of the various PKC families are α, β, and γ (classical), θ (novel) and ζ (atypical).
(§2) HeLa cells were plated out in a 24-well plate containing coverslips and transfected with PKC isoforms fused to EGFP, using a commercially available effectine-transfection kit (QIAGEN, Pty. Ltd.). Cells were exposed to the transfection reagents for 16-24 hr. Subsequently, transfected cells were treated for one hour with TPA (100 ng/mL), bryostatin-1 (5 pg/mL), PEP003 (2.25 μg/mL; 5 μM) or PEP005 ([…]) 1.5 μM). Following treatment, cells were fixed on coverslips and mounted on glass slides. The slides were subsequently examined visually by fluorescence microscopy, photographed, and over 150 cells were counted/treatment/PKC isoform. Counted cells were classified according to the localisation of the PKC-EGFP fluorescence as either cytoplasmic or plasma membrane using ImagePro™ 4.1 (FIG. 5). […] The number of these cells was also counted. Results are presented as an average and standard deviation of percentages of cells (Table 1).

PKCγ = molecular target: T2, PKCγ (Homo sapiens, UniProt P05129); assay: EGFP-PKC isoform translocation in HeLa cells; format: cell-based
T2 construct: host or cells: HeLa cells
Procedure: as §1, §2

PKCβ = molecular target: T3, PKCβ (Homo sapiens, UniProt P05771); assay: EGFP-PKC isoform translocation in HeLa cells; format: cell-based
T3 construct: host or cells: HeLa cells
Procedure: as §1, §2

PKCθ = molecular target: T4, PKCθ (Homo sapiens, UniProt Q04759); assay: EGFP-PKC isoform translocation in HeLa cells; format: cell-based; conditions: one hour, TPA 100 ng/mL, bryostatin-1 5 pg/mL, PEP003 2.25 μg/mL (5 μM), PEP005 670 μg/mL (1.5 μM)
T4 construct: host or cells: HeLa cells
Procedure: as §1, §2

PKCα = molecular target: T5, PKCα (Homo sapiens, UniProt P17252); format: cell-based; conditions: HeLa
T5 construct: host or cells: HeLa cells
Procedure: as §1
as §2, with “counted.” for “counted. Results are presented as an average and standard deviation of percentages of cells (Table 1).”

rat brain PKC = assay: PepTag non-radioactive PKC kinase activity assay; conditions: FIG. 1; TPA 100-0.01 ng/ml; ether extract final dilution 1 in 5; aqueous layer and crude sap diluted 1/25
Procedure: The kinase activity of rat brain PKC (Promega) was determined using the Peptag™ Non-Radioactive Protein Kinase Kit (Promega). Using agarose gel electrophoresis the technique visualises the opposing electrostatic charge of a fluorescently labeled peptide ([sequence]) compared to the phosphorylated version of the same peptide.
The reaction mixture was separated by gel electrophoresis, showing migration of the unreacted substrate (a) to the anode (top), and the product (b), which is more negatively charged because of phosphorylation by PKC, moving towards the cathode (bottom).

[1] = one hour, TPA 100 ng/mL, bryostatin-1 5 pg/mL, PEP003 2.25 μg/mL (5 μM), PEP005 670 μg/mL (1.5 μM)

T3 sequence (P05771 whole entry, species assumed, canonical isoform): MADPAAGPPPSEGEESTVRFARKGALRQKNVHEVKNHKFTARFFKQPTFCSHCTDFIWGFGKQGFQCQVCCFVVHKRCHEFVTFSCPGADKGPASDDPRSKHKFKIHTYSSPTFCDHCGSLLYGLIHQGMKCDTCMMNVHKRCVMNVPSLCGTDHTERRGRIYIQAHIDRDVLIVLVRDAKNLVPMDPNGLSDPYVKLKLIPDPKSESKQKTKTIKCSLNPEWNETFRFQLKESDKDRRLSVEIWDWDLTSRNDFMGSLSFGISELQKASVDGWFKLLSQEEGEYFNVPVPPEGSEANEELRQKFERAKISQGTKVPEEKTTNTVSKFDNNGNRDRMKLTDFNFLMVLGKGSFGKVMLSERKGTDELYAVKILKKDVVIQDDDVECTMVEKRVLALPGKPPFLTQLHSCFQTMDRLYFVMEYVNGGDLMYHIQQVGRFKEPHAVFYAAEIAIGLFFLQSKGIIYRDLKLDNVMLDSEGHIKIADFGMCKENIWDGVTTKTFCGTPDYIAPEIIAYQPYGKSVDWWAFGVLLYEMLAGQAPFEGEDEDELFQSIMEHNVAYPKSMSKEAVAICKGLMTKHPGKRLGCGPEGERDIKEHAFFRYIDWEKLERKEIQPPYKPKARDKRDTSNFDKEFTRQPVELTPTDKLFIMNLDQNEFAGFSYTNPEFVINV
T4 sequence (Q04759 whole entry, canonical isoform): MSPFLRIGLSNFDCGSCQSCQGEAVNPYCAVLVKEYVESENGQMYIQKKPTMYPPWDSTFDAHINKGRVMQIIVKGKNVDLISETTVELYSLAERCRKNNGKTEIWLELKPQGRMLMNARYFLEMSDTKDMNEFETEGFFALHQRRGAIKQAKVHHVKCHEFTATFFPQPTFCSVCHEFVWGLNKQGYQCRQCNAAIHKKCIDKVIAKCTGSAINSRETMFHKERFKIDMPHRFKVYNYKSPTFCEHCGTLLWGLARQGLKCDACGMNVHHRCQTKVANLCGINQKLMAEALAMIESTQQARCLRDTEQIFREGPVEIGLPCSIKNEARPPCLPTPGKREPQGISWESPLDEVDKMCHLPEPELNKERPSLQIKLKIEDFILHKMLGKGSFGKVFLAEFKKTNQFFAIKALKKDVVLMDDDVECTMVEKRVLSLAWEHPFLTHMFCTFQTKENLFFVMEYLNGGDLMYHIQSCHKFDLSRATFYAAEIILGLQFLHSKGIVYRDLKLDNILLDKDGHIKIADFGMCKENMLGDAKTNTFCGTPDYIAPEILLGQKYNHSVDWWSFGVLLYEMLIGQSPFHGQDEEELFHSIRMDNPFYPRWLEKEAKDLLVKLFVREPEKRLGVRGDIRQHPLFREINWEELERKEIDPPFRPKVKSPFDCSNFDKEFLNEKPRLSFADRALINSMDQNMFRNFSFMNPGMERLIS

## CCCCCCCCCCCCCC(=O)O[C@@H]1[C@@H](C)[C@@]2(O)[C@@H](C=C(CO)C[C@]3(O)C(=O)C(C)=C[C@@H]23)C2C(C)(C)[C@@]21OC(C)=O (single isomer, unassigned) [TPA]
HIV-strain pNL4-3; 8 nM
  reduction of HIV-1 replication rate: ~38%
HIV-strain pNL4-3; 80 nM
  reduction of HIV-1 replication rate: ~98%
PKCζ
  translocation of PKCζ: fail to induce translocation
PKCγ; one hour treatment
  number of PKCγ transfected cells displaying Golgi-like fluorescence: increase in the number of cells displaying Golgi-like fluorescence
PKCγ; [1]
  translocation of PKCγ to the plasma membrane: translocated from the cytoplasm to the plasma membrane
PKCβ; one hour treatment
  number of PKCβ transfected cells with Golgi-like fluorescence: increase in Golgi-Tike fluorescence
PKCβ; [1]
  translocation of PKCβ to the plasma membrane: translocated from the cytoplasm to the plasma membrane
PKCθ
  translocation of PKCθ: translocated
PKCα; one hour treatment
  number of PKCα transfected cells displaying Golgi-like fluorescence: increase in the number of cells displaying Golgi-like fluorescence
PKCα; one hour, TPA 100 ng/mL, bryostatin-1 5 pg/mL, PEP003 2.25 μg/mL (5 μM)
  translocation of PKCα to the plasma membrane: translocated from the cytoplasm to the plasma membrane
Rat brain PKC
  activation of PKC (phosphorylation of fluorescent PepTag substrate): showed activation of PKC

— patent US20030195168A1, “Therapeutic agents - III” (priority 2000, published 2003)
